What was measured:
[1] = molecular target: ROCK-II (ROKa) (Rattus norvegicus, UniProt Q62868); assay: ROCK inhibition studies (33P-ATP, Long S6 substrate peptide); assay type: biochemical
Protocol: ROCK-II (ROKa) (5–20 mU diluted in 50 mM Tris pH 7.5, 0.1 mM EGTA, 0.1% 2-mercaptoethanol, and 1 mg/mL BSA) was assayed against the Long S6 substrate peptide ([…]) in a final volume of 25.5 μL containing 50 mM Tris pH 7.5, 0.1 mM EGTA, 30 μM Long S6 substrate peptide, 10 mM magnesium acetate, and 0.02 mM [33P-g-ATP] (50–1000 cpm/pmol) and incubated for 30 min at room temperature. Assays were stopped by addition of 5 μL of 0.5 M (3%) orthophosphoric acid and then harvested onto P81 Unifilter plates with a wash buffer of 50 mM orthophosphoric acid.

[2] = molecular target: KEAP1 (Homo sapiens, UniProt Q14145); assay: Differential scanning fluorimetry (DSF) assay; assay type: binding; settings: 100 μM; difference from KEAP1 alone (Ti 61.3 °C)
Chain of KEAP1 (Q14145 whole entry): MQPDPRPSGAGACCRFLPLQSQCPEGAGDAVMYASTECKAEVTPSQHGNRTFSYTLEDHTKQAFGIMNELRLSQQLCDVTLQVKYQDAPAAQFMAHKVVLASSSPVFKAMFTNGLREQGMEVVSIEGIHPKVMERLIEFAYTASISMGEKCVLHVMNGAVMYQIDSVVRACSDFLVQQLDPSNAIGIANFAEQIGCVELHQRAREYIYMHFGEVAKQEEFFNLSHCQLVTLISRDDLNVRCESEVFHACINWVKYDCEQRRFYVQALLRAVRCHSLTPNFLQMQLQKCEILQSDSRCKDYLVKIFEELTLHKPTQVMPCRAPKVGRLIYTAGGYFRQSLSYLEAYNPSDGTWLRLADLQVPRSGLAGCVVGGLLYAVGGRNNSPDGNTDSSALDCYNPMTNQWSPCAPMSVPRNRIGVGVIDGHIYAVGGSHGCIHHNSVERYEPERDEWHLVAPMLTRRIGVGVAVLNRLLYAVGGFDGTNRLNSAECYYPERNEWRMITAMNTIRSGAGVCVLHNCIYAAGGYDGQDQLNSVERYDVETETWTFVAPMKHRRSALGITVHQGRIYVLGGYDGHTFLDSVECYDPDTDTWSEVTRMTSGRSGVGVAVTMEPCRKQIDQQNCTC

Chain of ROCK-II (ROKa) (Q62868 2-543 limits assumed): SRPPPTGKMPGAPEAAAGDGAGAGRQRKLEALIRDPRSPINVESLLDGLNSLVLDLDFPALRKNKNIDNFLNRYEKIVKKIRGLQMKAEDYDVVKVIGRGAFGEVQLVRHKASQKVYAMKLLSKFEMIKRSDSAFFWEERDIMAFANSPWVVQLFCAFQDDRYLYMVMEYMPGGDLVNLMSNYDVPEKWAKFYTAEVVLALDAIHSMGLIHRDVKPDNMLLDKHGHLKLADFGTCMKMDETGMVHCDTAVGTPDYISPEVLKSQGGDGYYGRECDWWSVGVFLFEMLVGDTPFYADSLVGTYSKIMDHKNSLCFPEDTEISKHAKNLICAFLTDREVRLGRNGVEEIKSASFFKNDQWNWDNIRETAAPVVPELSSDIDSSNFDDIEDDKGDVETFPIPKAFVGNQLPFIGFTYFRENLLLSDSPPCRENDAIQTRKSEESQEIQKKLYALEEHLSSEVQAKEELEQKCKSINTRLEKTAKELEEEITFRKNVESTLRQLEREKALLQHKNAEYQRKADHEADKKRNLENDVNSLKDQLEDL

remaining activity at 10 µM ([1]; 0.5 h, 10 microM, supplementary CSV, read-out: ROCK2 activity @ 10microM): 14.6 ± 4.1%
IC50 ([1]; Table 3, read-out: ROCK2 inhibition IC50): 730 nM
ΔTi (± S.E.M.) [2]: +0.2 (± 0.1) °C
Structure (SMILES): O=C(CCc1ccc(O)c(O)c1)N1CCCN(S(=O)(=O)c2cccc3cnccc23)CC1 [Compound 1d, 3-(3,4-Dihydroxyphenyl)-1-(4-(isoquinolin-5-ylsulfonyl)-1,4-diazepan-1-yl)propan-1-one]
ROCK2 inhibition potency compared with fasudil ([1]; in words): potency similar to the reference compound
